pEC50, pIC50: −log10 of the molar value. Where a name gives a salt, the structure may show the parent alone.
Assays:
brain 5-HT2 receptors = brain 5-HT2 receptors (Rattus norvegicus, UniProt P14842); test: 5HT2 Receptor Binding Assay ([125I]DOI competition); conditions: inhibition of [125I]DOI binding, rat or human cerebral cortex homogenates
Procedure: 5HT2 Receptor Binding Assay
Aliquots of post mortem rat or human cerebral cortex homogenates (400 μl) dispersed in 50 mM TrisHCl buffer (pH 7.4) are incubated with [^125I]DOI (80 pM final) in the absence or presence of methiothepin (10 μM final) to define total and non-specific binding, respectively, in a total volume of 0.5 ml. The assay mixture is incubated for 1 hour at 23° C. in polypropylene tubes and the assays terminated by rapid vacuum filtration over Whatman GF/B glass fiber filters previously soaked in 0.3% polyethyleneimine using ice-cold buffer. Test compounds (at different concentrations) are substituted for methiothepin. Filter-bound radioactivity is determined by scintillation spectrometry on a beta counter. The data are analyzed using a non-linear, iterative curve-fitting computer program [Trends Pharmacol. Sci., 16, 413 (1995)] to determine the compound affinity parameter. The concentration of the compound needed to inhibit the [^125I]DOI binding by 50% of the maximum is termed the IC50 value.

5-HT2 receptor = target: T1, 5-HT2 receptor (Rattus norvegicus, UniProt P14842); test: 5-HT2 Functional Assay: Phosphoinositide (PI) Turnover Assay; format: cell-based; conditions: for pEC50: [3H]inositol phosphate production in A7r5 rat vascular smooth muscle cells; for Emax: A7r5 cells, relative to 5-HT set at 100%, read-out: Efficacy (Emax, %)
T1 construct: [^3H]myo-inositol-labeled A7r5 rat vascular smooth muscle cells; endogenous in cells; host or cells: A7r5 rat vascular smooth muscle cells
Procedure: 5-HT2 Functional Assay: Phosphoinositide (PI) Turnover Assay
The relative agonist activity of serotonergic compounds at the 5-HT2 receptor can be determined in vitro using the ability of the compounds to stimulate the production of [^3H]inositol phosphates in [^3H]myo-inositol-labeled A7r5 rat vascular smooth muscle cells by their ability to activate the enzyme phospholipase C. These cells are grown in culture plates, maintained in a humidified atmosphere of 5% CO2 and 95% air and fed semi-weekly with Dulbecco's modified Eagle medium (DMEM) containing 4.5 g/l glucose and supplemented with 2 mM glutamine, 10 μg/ml gentamicin, and 10% fetal bovine serum. For the purpose of conducting the phosphoinositide (PI) turnover experiments, the A7r5 cells are cultured in 24-well plates as previously [J. Pharmacol. Expt. Ther., 286, 411 (1998)]. Confluent cells are exposed for 24-30 hrs to 1.5 μCi [^3H]-myo-inositol (18.3 Ci/mmol) in 0.5 ml of serum-free medium. Cells are then rinsed once with DMEM/F-12 containing 10 mM LiCl prior to incubation with the test agent (or solvent as the control) in 1.0 ml of the same medium for 1 hr at 37° C., after which the medium is aspirated and 1 ml of cold 0.1 M formic acid added to stop the reaction. The chromatographic separation of [^3H]-inositol phosphates ([^3H]-IPs) on an AG- 1-X8 column is performed as previously described [J. Pharmacol. Expt. Ther. 286, 411 (1998)] with sequential washes with H2O and 50 mM ammonium formate, followed by elution of the total [^3H]-IPs fraction with 1.2 M ammonium formate containing 0.1 M formic acid. The eluate (4 ml) is collected, mixed with 15 ml scintillation fluid, and the total [^3H]-IPs determined by scintillation counting on a beta-counter. Concentration-response data are analyzed by the sigmoidal fit function of the Origin Scientific Graphics software (Microcal Software, Northampton, Mass.) to determine agonist potency (EC50 value) and efficacy (Emax). Serotonin (5-HT) is used as a positive control (standard) agonist compound and the efficacy of test compounds is compared to that of 5-HT (set at 100%). The concentration of the compound needed to stimulate the production of [^3H]-IPs by 50% of the maximum response is termed the EC50 value.

[1] = tested on: Lasered (Hypertensive) Eyes of Conscious Cynomolgus Monkeys; test: Acute IOP Response in Lasered (Hypertensive) Eyes of Conscious Cynomolgus Monkeys; format: in vivo, Cynomolgus monkey; conditions: lasered eye
Procedure: Acute IOP Response in Lasered (Hypertensive) Eyes of Conscious Cynomolgus Monkeys
Intraocular pressure (IOP) was determined with an Alcon Pneumatonometer after light corneal anesthesia with 0.1% proparacaine. Eyes were washed with saline after each measurement. After a baseline IOP measurement, test compound was instilled in one 30 μL aliquot to the right eyes only of nine cynomolgus monkeys. Vehicle was instilled in the right eyes of six additional animals. Subsequent IOP measurements were taken at 1, 3, and 6 hours. A compound is considered efficacious in this model of ocular hypertension if there is a decrease in the baseline IOP of the lasered eye (O.D.) of at least 20% following topical administration.

[2] = 1 hour after dose, 300 μg topical
[3] = 3 hours after dose, 300 μg topical
[4] = 6 hours after dose, 300 μg topical

T1 sequence (P14842 whole entry): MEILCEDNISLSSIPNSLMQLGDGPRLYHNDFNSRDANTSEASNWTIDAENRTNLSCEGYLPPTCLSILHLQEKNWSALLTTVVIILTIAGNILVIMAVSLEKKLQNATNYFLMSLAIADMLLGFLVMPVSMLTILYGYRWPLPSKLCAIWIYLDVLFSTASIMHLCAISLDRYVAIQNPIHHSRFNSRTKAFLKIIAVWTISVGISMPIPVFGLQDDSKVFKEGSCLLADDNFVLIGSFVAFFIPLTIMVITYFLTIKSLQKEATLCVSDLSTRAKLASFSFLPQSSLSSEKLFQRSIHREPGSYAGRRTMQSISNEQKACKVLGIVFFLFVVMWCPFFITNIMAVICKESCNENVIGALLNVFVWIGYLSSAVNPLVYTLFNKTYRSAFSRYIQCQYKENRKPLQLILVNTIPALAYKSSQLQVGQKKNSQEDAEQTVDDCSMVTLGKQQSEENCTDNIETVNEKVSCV
Sequence of brain 5-HT2 receptors (P14842 whole entry): as above

| Compound | melting point [°C] | pIC50 (brain 5-HT2 receptors) | pEC50 (5-HT2 receptor) | Percent IOP Reduction ± SEM ([1]; 1 hour after dose, 100 μg topical) [%] | Percent IOP Reduction ± SEM ([1]; 3 hours after dose, 100 μg topical) [%] | Percent IOP Reduction ± SEM ([1]; 6 hours after dose, 100 μg topical) [%] | Emax (5-HT2 receptor) [%] | Percent IOP Reduction ± SEM [1, 2] [%] | Percent IOP Reduction ± SEM [1, 3] [%] | Percent IOP Reduction ± SEM [1, 4] [%] |
| --- | --- | --- | --- | --- | --- | --- | --- | --- | --- | --- |
| CC(N)Cc1cn(C)c2ccc3c(c12)CCCO3 (stereo not drawn) (as salt: hydrochloride) [Example 1, 1-Methyl-2-(3-methyl3,7,8,9-tetrabydro-pyrano[3,2-e]indol-1-yl)-ethylamine hydrochloride] | 214 to 217 | – | – | – | – | – | – | – | – | – |
| COc1cc(C[C@@H](C)N)c(OC)cc1I [(R)-DOI, reference compound] | – | 9.34 | 7.56 | 11.0 ± 4.98 | 25.3 ± 2.97 | 34.4 ± 4.98 | – | – | – | – |
| CC(N)Cc1cn(C)c2ccc3c(c12)CCCO3 (stereo not drawn) [Example 1, 1-Methyl-2-(3-methyl3,7,8,9-tetrabydro-pyrano[3,2-e]indol-1-yl)-ethylamine hydrochloride] | – | – | 6.72 | – | – | – | 119 | 18.8 ± 3.31 | 28.0 ± 5.20 | 26.1 ± 5.35 |
| CC(N)Cc1c[nH]c2ccc3c(c12)CCCO3.Cl (stereo not drawn) [Example 3, 1-Methyl-2-(3,7,8,9-tetrahydro-pyrano[3,2-e]indol-1-yl)-ethylamine hydrochloride] | – | – | 6.94 | – | – | – | 81 | 16.0 ± 3.79 | 28.0 ± 5.49 | 22.9 ± 6.70 |
| C[C@@H](N)Cc1c[nH]c2ccc3c(c12)CCCO3 [Example 4, (R)-1-Methyl-2-(3,7,8,9-tetrahydro-pyrano[3,2-e]indol-1-yl)ethylamine hydrochloride] | – | – | 6.95 | – | – | – | 109 | – | – | – |
| CC(N)Cc1c[nH]c2ccc3c(c12)CC(O)CO3.Cl (stereo not drawn) [Example 6, 1-(2-Aminopropyl)-3,7,8,9-tetrahydro-pyrano[3,2-e]indol-8-ol hydrochloride] | 187 to 192 | – | 6.52 | – | – | – | 92 | – | – | – |
